Data published in BindingDB's records for doi:10.1002/cbic.200800304 (Research Institute, Hospital For Sick Children, 2008).

Target: T1, Lysosomal acid glucosylceramidase (Homo sapiens, UniProt P04062)
T1 sequence (P04062 whole entry): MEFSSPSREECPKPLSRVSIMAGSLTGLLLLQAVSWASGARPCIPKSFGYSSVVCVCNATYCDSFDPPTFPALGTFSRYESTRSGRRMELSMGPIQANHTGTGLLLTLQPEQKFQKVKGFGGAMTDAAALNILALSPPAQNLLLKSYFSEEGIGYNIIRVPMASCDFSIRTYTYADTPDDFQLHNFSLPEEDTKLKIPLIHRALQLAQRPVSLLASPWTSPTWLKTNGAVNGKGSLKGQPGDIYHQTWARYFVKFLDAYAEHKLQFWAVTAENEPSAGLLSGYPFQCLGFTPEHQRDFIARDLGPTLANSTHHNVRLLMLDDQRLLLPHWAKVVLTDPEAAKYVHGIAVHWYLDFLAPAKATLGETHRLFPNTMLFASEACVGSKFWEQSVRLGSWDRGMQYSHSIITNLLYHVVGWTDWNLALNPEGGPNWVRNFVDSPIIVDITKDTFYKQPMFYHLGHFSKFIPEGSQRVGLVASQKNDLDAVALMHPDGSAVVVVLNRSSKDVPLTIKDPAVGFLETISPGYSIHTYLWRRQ
Experiment: Inhibiton Assay
Settings: pH 5.5; 37 °C
Method: Beta-glucocerebrosidase (GCase) activity was measured by release of 4-methylumbelliferyl fluorophore from MUClc.

| Structure (SMILES) | IC50 |
| --- | --- |
| Cc1ccc(Sc2cccc3nc(N)nc(N)c23)cc1 | 7.8 µM |
| CC(C)(C)C(=O)Nc1ccncc1 [2,2-dimethyl-N-(4-pyridinyl)propanamide, 2b] | > 400 µM |
| Nc1nc(N)c2cc([N+](=O)[O-])ccc2n1 [2,4-diamino-6-nitro-quinazoline, 1a] | 61 µM |
| O=C(Nc1ccncc1)c1ccc(Oc2cc(Cl)cc(Cl)c2)o1 [5-(3,5-dichlorophenoxy)-N-(4-pyrdinyl)-2-furamide, 2] | 4.7 µM |
| CCOc1ccc2c(N)nc(N)nc2c1OCC [7,8-diethoxy-quinazoline 2,4-diamine, 1b] | 22 µM |
